Measurements from US20240010639A1, “TRIAZINE DIONE DERIVATIVE, PREPARATION METHOD THEREFOR AND APPLICATION THEREOF IN MEDICINE” (Jiangsu Hengrui Pharmaceuticals Co., Ltd., priority 2020, published 2024).
Where two headings read alike, the source gives them in different places.

Experiment: Toxicokinetic evaluation of 14-day repeated intragastric administration to SD rats
Format: in vivo
Conditions: for half-life at 1 day: Day 1, read-out: Half-life T1/2 (converted); for Cmax at 1 day: Day 1, read-out: Plasma concentration Cmax; for MRT at 1 day: Day 1, read-out: Residence time MRT
Protocol: With SD rats as test animals, the plasma concentrations of the test compounds and the concentrations of the original forms of the compounds in the administration solutions were measured by LC/MS/MS at different time points after intragastric administration. The toxicokinetic performance of the compound disclosed herein was studied in SD rats and its toxicokinetic profile was evaluated.
24 SD rats, an equal number of males and females, evenly divided into 6 groups of 4, an equal number of males and females in each group, provided by Vital River Laboratory Animal Technology Co., Ltd.
A certain amount of the compound of Example 16 was measured out, and 15% PEG400 and 85% (10% TPGS+1% HPMC K100LV) were added to prepare a pale yellow homogenous suspension.
A certain amount of compound MYK-461 was measured out, and 0.5% MC was added to prepare a colorless clear solution.
The compound of Example 16 was intragastrically administered at doses of 5 mg/kg, 15 mg/kg and 30 mg/kg, at a volume of 10 mL/kg.
Compound MYK-461 was administered at doses of 0.5 mg/kg, 1.5 mg/kg and 3 mg/kg, at a volume of 10 mL/kg.
0.2-mL blood samples were collected from the orbit 0.5 h, 1.0 h, 2.0 h, 4.0 h, 8.0 h and 24.0 h after administration on day 1, and before administration and 0.5 h, 1.0 h, 2.0 h, 4.0 h, 8.0 hi, 24.0 h after administration on day 7 and day 14, placed into EDTA-K2 anticoagulation tubes, and centrifuged at 10,000 rpm for 1 min (4° C.), and plasma was isolated within 1 h and stored at −20° C. before analysis. The blood collection to centrifugation process was performed under ice bath conditions. Two hours after administration, feeding was resumed.
Determination of plasma concentrations in SD rats after intragastric administration of different concentrations of test compounds: 20 μL of SD rat plasma at each time point post-dose was mixed with 50 μL of an internal standard solution (internal standard for the compound of Example 16: 100 ng/mL verapamil; internal standard for compound MYK-461: 100 ng(mL camptothecin) and 200 μL of acetonitrile; the mixture was vortexed for 5 min and centrifuged at 3700 rpm for 10 min, and 1 μL of the supernatant was taken for LC/MS/MS analysis.

[1] = both sexes, SD, rat, plasma, po, 5 mg/kg, repeated intragastric 5 mg/kg
[2] = both sexes, SD, rat, plasma, po, 15 mg/kg, repeated intragastric 15 mg/kg

Q: Which “accumulation after 14 days of repeated intragastric administration (in words)” value does the source give for Cc1ccc(F)c([C@H](C)Nc2nc(=O)n(C3CCOCC3)c(=O)[nH]2)c1 [Example 16, (S)-6-((1-(2-Fluoro-5-methylphenyl)ethyl)amino)-3-(tetrahydro-2H-pyran-4-yl)-1,3,5-triazine-2,4(1H,3H)-dione] here?
A: Its value is “did not show significant accumulation”.

Q: And the Vd/F at 1 day (both sexes, SD, rat, plasma, po, 5 mg/kg, repeated intragastric 5 mg/kg, Day 1, read-out: Apparent volume of distribution Vz/F)?
A: Its Vd/F at 1 day is 1.27 L/kg.

Q: What about the AUC (both sexes, SD, rat, plasma, po, 5 mg/kg, repeated intragastric 5 mg/kg, Day 1, read-out: Area under curve AUC) of the same molecule?
A: Its AUC is 30000 ng·h/mL.

Q: What about the CL/F at 1 day (both sexes, SD, rat, plasma, po, 5 mg/kg, repeated intragastric 5 mg/kg, Day 1, read-out: Clearance CL/F) of the same molecule?
A: Its CL/F at 1 day is 3.06 mL/min/kg.

Q: What about the half-life at 1 day [1] of the same molecule?
A: The half-life at 1 day was 4.8 h.

Q: And the Cmax at 1 day [1]?
A: Its Cmax at 1 day is 5740 ng/mL.

Q: What about the MRT at 1 day [1] of the same molecule?
A: Its MRT at 1 day is 5 h.

Q: And the Vd/F at 7 day (both sexes, SD, rat, plasma, po, 5 mg/kg, repeated intragastric 5 mg/kg, Day 7, read-out: Apparent volume of distribution Vz/F)?
A: Its Vd/F at 7 day is 1.28 L/kg.

Q: What about the AUC at 7 day (both sexes, SD, rat, plasma, po, 5 mg/kg, repeated intragastric 5 mg/kg, Day 7, read-out: Area under curve AUC) of the same molecule?
A: Its AUC at 7 day is 28100 ng·h/mL.

Q: And the CL/F at 7 day (both sexes, SD, rat, plasma, po, 5 mg/kg, repeated intragastric 5 mg/kg, Day 7, read-out: Clearance CL/F)?
A: Its CL/F at 7 day is 2.99 mL/min/kg.

Q: What about the half-life at 7 day (both sexes, SD, rat, plasma, po, 5 mg/kg, repeated intragastric 5 mg/kg, Day 7, read-out: Half-life T1/2 (converted)) of the same molecule?
A: The half-life at 7 day was 4.9 h.

Q: What about the Cmax at 7 day (both sexes, SD, rat, plasma, po, 5 mg/kg, repeated intragastric 5 mg/kg, Day 7, read-out: Plasma concentration Cmax) of the same molecule?
A: Its Cmax at 7 day is 4470 ng/mL.

Q: What about the MRT at 7 day (both sexes, SD, rat, plasma, po, 5 mg/kg, repeated intragastric 5 mg/kg, Day 7, read-out: Residence time MRT) of the same molecule?
A: Its MRT at 7 day is 6 h.

Q: And the Vd/F at 14 day (both sexes, SD, rat, plasma, po, 5 mg/kg, repeated intragastric 5 mg/kg, Day 14, read-out: Apparent volume of distribution Vz/F)?
A: Its Vd/F at 14 day is 1.24 L/kg.

Q: And the AUC at 14 day (both sexes, SD, rat, plasma, po, 5 mg/kg, repeated intragastric 5 mg/kg, Day 14, read-out: Area under curve AUC)?
A: The AUC at 14 day was 29800 ng·h/mL.

Q: And the CL/F at 14 day (both sexes, SD, rat, plasma, po, 5 mg/kg, repeated intragastric 5 mg/kg, Day 14, read-out: Clearance CL/F)?
A: Its CL/F at 14 day is 2.8 mL/min/kg.

Q: And the half-life at 14 day (both sexes, SD, rat, plasma, po, 5 mg/kg, repeated intragastric 5 mg/kg, Day 14, read-out: Half-life T1/2 (converted))?
A: The half-life at 14 day was 5.1 h.

Q: What about the Cmax at 14 day (both sexes, SD, rat, plasma, po, 5 mg/kg, repeated intragastric 5 mg/kg, Day 14, read-out: Plasma concentration Cmax) of the same molecule?
A: Its Cmax at 14 day is 4860 ng/mL.

Q: What about the MRT at 14 day (both sexes, SD, rat, plasma, po, 5 mg/kg, repeated intragastric 5 mg/kg, Day 14, read-out: Residence time MRT) of the same molecule?
A: The MRT at 14 day was 6.2 h.

Q: What about the Vd/F (both sexes, SD, rat, plasma, po, 15 mg/kg, repeated intragastric 15 mg/kg, Day 1, read-out: Apparent volume of distribution Vz/F) of the same molecule?
A: Its Vd/F is 1.37 L/kg.

Q: What about the AUC at 1 day (both sexes, SD, rat, plasma, po, 15 mg/kg, repeated intragastric 15 mg/kg, Day 1, read-out: Area under curve AUC) of the same molecule?
A: The AUC at 1 day was 80400 ng·h/mL.

Q: And the CL/F (both sexes, SD, rat, plasma, po, 15 mg/kg, repeated intragastric 15 mg/kg, Day 1, read-out: Clearance CL/F)?
A: Its CL/F is 3.08 mL/min/kg.

Q: And the half-life at 1 day [2]?
A: Its half-life at 1 day is 5.1 h.

Q: And the Cmax at 1 day [2]?
A: Its Cmax at 1 day is 16100 ng/mL.

Q: And the MRT at 1 day [2]?
A: Its MRT at 1 day is 5.4 h.

Q: And the Vd/F (both sexes, SD, rat, plasma, po, 15 mg/kg, repeated intragastric 15 mg/kg, Day 7, read-out: Apparent volume of distribution Vz/F)?
A: The Vd/F was 2.13 L/kg.

Q: What about the AUC (both sexes, SD, rat, plasma, po, 15 mg/kg, repeated intragastric 15 mg/kg, Day 7, read-out: Area under curve AUC) of the same molecule?
A: The AUC was 70900 ng·h/mL.

Q: What about the CL/F (both sexes, SD, rat, plasma, po, 15 mg/kg, repeated intragastric 15 mg/kg, Day 7, read-out: Clearance CL/F) of the same molecule?
A: Its CL/F is 3.58 mL/min/kg.

Q: What about the half-life (both sexes, SD, rat, plasma, po, 15 mg/kg, repeated intragastric 15 mg/kg, Day 7, read-out: Half-life T1/2 (converted)) of the same molecule?
A: Its half-life is 6.5 h.

Q: And the Cmax (both sexes, SD, rat, plasma, po, 15 mg/kg, repeated intragastric 15 mg/kg, Day 7, read-out: Plasma concentration Cmax)?
A: The Cmax was 16800 ng/mL.

Q: What about the MRT (both sexes, SD, rat, plasma, po, 15 mg/kg, repeated intragastric 15 mg/kg, Day 7, read-out: Residence time MRT) of the same molecule?
A: The MRT was 6.7 h.

Q: And the Vd/F (both sexes, SD, rat, plasma, po, 15 mg/kg, repeated intragastric 15 mg/kg, Day 14, read-out: Apparent volume of distribution Vz/F)?
A: The Vd/F was 1.45 L/kg.

Q: And the AUC (both sexes, SD, rat, plasma, po, 15 mg/kg, repeated intragastric 15 mg/kg, Day 14, read-out: Area under curve AUC)?
A: The AUC was 82900 ng·h/mL.

Q: What about the CL/F (both sexes, SD, rat, plasma, po, 15 mg/kg, repeated intragastric 15 mg/kg, Day 14, read-out: Clearance CL/F) of the same molecule?
A: Its CL/F is 2.98 mL/min/kg.
